This is an account of results in US5910504A, “Hetero-aromatic ring substituted phenyloxazolidinone antimicrobials” (Pharmacia & Upjohn, priority 1997, dated 1999).

The structures appear in SMILES notation. ≈ marks a conversion by molar mass, not a printed value.

Assay [1] concerns S. aureus, UC 9213. The assay can be described thus: In vitro activity: minimum inhibitory concentration (MIC) by agar dilution, S. aureus. The class given is cell-based. The conditions noted are these: Staphylococcus aureus, UC9213; agar dilution; read-out: Minimum Inhibitory Concentration, S. aureus, UC 9213. The source says: (§1) The oxazolidinone antibacterial agents of this invention have useful activity against a variety of organisms. The in vitro activity of compounds of this invention can be assessed by standard testing procedures such as the determination of minimum inhibitory concentration (MIC) by agar dilution as desribed in "Methods for Dilution Antimicrobial Susceptibility Tests for Bacteria That Grow Aerobically" (MFT) published January 1983 by the National Committee for Clinical Laboratory Standards, 771 East Lancaster Avenue, Villanova, Pa. 19084, USA. The activity of selected compounds of this invention against Staphylococcus aureus and Streptococcus pneumoniae are shown in Table 1.

The test system of the next assay is S. pneumoniae, UC 9912. The assay can be described thus: In vitro activity: minimum inhibitory concentration (MIC) by agar dilution, S. pneumoniae. The class given is cell-based. The conditions noted are these: Streptococcus pneumoniae, UC9912; agar dilution; read-out: Minimum Inhibitory Concentration, S. pneumoniae, UC 9912.
Text: as §1

For assay [2], the system named is S. aureus, UC 9213. The assay can be described thus: In vivo antimicrobial activity, Murine Assay procedure. Details: species or system Staphylococcus aureus (infected female mice). The conditions noted are these: Staphylococcus aureus, UC9213, 144 h; female mice, i.p. infection; drug 1 h and 5 h after infection, oral or subcutaneous; six-day survival, probit; read-out: ED50, S. aureus, UC 9213. The procedure:
Antimicrobial activity was tested in vivo using the Murine Assay procedure. Groups of female mice (six mice of 18-20 grams each) were injected intraperitoneally with bacteria which were thawed just prior to use and suspended in brain heart infusion with 4% brewers yeast UC9213 (Staphylococcus aureus) or brain heart infusion (Streptococcus species). Antibiotic treatment at six dose levels per drug was administered one hour and five hours after infection by either oral intubation or subcutaneous ("subcut.") routes. Survival was observed daily for six days. ED50 values based on mortality ratios were calculated using probit analysis. The subject compounds were compared against a well-known antimicrobial (Vancomycin) as a control.

With `CC(=O)NC[C@H]1CN(c2ccc(-n3cccc3)c(F)c2)C(=O)O1` [Example 1, (S)-N-[[3-[3-Fluro-4-(1H-pyrrol-1-yl)phenyl]-2-oxo-5-oxazolidinyl]methyl]acetamide], the MIC with S. aureus, UC 9213 [1] is less than 0.5 µg/mL; in the assay with S. pneumoniae, UC 9912 it was less than 0.5 µg/mL.
Turning to `CC(=O)NC[C@H]1CN(c2ccc(-n3cccn3)c(F)c2)C(=O)O1` [Example 2, (S)-N-[[3-[3-Fluoro-4-(1H-pyrazol-1-yl)phenyl]-2-oxo-5-oxazolidinyl]methyl]acetamide], the MIC was determined as 2 µg/mL (≈ 6.28 µM) with S. aureus, UC 9213 [1] and 1 µg/mL (≈ 3.14 µM) in the assay with S. pneumoniae, UC 9912.
For orientation: ED50 means the dose that gives a 50% effect, or the effect in half of the subjects. `CC(=O)NC[C@H]1CN(c2ccc(-n3ccnc3)c(F)c2)C(=O)O1` [Example 3, (S)-N-[[3-[3-Fluoro-4-(1H-imidazol-1-yl)phenyl]-2-oxo-5-oxazolidinyl]methyl]acetamide]: the ED50 with S. aureus, UC 9213 [2] was found to be 9.5 mg/kg. For the same molecule, the MIC in the assay with S. aureus, UC 9213 [1] was 2 µg/mL (≈ 6.28 µM); in the assay with S. pneumoniae, UC 9912 it was less than 0.5 µg/mL.
Turning to `CC(=O)NC[C@H]1CN(c2ccc(-n3cncn3)c(F)c2)C(=O)O1` [Example 4, (S)-N-[[3-[3-Fluoro-4-(1H-1,2,4-triazol-1-yl)phenyl]-2-oxo-5-oxazolidinyl]methyl]acetamide], in the assay on S. aureus, UC 9213 [2], the ED50 was 5.7 mg/kg. The MIC in the assay with S. aureus, UC 9213 [1] was 4 µg/mL (≈ 12.5 µM); in the assay on S. pneumoniae, UC 9912, 1 µg/mL (≈ 3.13 µM).
As for `CC(=O)NC[C@H]1CN(c2ccc(-n3ccc4ccccc43)c(F)c2)C(=O)O1` [Example 5, (S)-N-[[3-[3-Fluoro-4-(1H-indol-1-yl)phenyl]-2-oxo-5-oxazolidinyl]methyl]acetamide], the MIC was 4 µg/mL (≈ 10.9 µM) in the assay with S. aureus, UC 9213 [1] and 1 µg/mL (≈ 2.72 µM) with S. pneumoniae, UC 9912.
As to `CC(=O)NC[C@H]1CN(c2ccc(-n3ccnn3)c(F)c2)C(=O)O1` [Example 6, (S)-N-[[3-[3-Fluoro-4-(1H-1,2,3-triazol-1-yl)phenyl]-2-oxo-5-oxazolidinyl]methyl]acetamide], the median effective dose (ED50) in the assay on S. aureus, UC 9213 [2] is 4.7 mg/kg. The MIC in the assay on S. aureus, UC 9213 [1] was 1 µg/mL (≈ 3.13 µM); with S. pneumoniae, UC 9912, less than 0.5 µg/mL.
The corresponding values for `O=C(NC[C@H]1CN(c2ccc(-n3ccnn3)c(F)c2)C(=O)O1)C(Cl)Cl` [Example 7, (S)-N-[[3-[3-Fluoro-4-(1H-1,2,3-triazol-1-yl)phenyl]-2-oxo-5-oxazolidinyl]methyl]-2,2-dichloroacetamide] are 11.9 mg/kg, 1 µg/mL (≈ 2.58 µM) and less than 0.5 µg/mL.
Regarding `CC(=O)NC[C@H]1CN(c2ccc(-n3nccn3)c(F)c2)C(=O)O1` [Example 8, (S)-N-[[3-[3-Fluoro-4-(2H-1,2,3-triazol-2-yl)phenyl]-2-oxo-5-oxazolidinyl]methyl]acetamide], the MIC with S. aureus, UC 9213 [1] came out at 4 µg/mL (≈ 12.5 µM); in the assay with S. pneumoniae, UC 9912 it was 1 µg/mL (≈ 3.13 µM).
The corresponding values for `CC(=O)NC[C@H]1CN(c2ccc(-n3cnnc3S)c(F)c2)C(=O)O1` [Example 9, (S)-N-[[3-[3-Fluoro-4-(3-mercapto-4H-1,2,4-triazol-4-yl)phenyl]-2-oxo-5-oxazolidinyl]methyl]acetamide] are more than 32 µg/mL and 8 µg/mL (≈ 22.8 µM).
`CSc1nncn1-c1ccc(N2C[C@H](CNC(C)=O)OC2=O)cc1F` [Example 10, (S)-N-[[3-[3-Fluoro-4-(3-methylthio-4H-1,2,4-triazol-4-yl)phenyl]-2-oxo-5-oxazolidinyl]methyl]acetamide]: the MIC in the assay with S. aureus, UC 9213 [1] is 8 µg/mL (≈ 21.9 µM); in the assay with S. pneumoniae, UC 9912 it was 1 µg/mL (≈ 2.74 µM).
For the molecule `CC(=O)NC[C@H]1CN(c2ccc(-n3cnnc3)c(F)c2)C(=O)O1` [Example 11, (S)-N-[[3-[3-Fluoro-4-(4H-1,2,4-triazol-4-yl)phenyl]-2-oxo-5-oxazolidinyl]methyl]acetamide], the MIC is more than 16 µg/mL in the assay with S. aureus, UC 9213 [1] and 1 µg/mL (≈ 3.13 µM) in the assay on S. pneumoniae, UC 9912.
The corresponding values for `CC(=O)NC[C@H]1CN(c2ccc(-n3ccc(C=O)c3)c(F)c2)C(=O)O1` [Example 12, (S)-N-[[3-[3-Fluoro-4-(1H-pyrrol-1-yl-3-carboxaldehyde)phenyl]-2-oxo-5-oxazolidinyl]methyl]acetamide] are 0.25 µg/mL (≈ 0.724 µM) and less than 0.06 µg/mL.
The corresponding values for `CC(=O)NC[C@H]1CN(c2ccc(-n3ccc(CO)c3)c(F)c2)C(=O)O1` [Example 13, (S)-N-[[3-[3-Fluoro-4-(3-hydroxymethyl-1H-pyrrol-1-yl)phenyl]-2-oxo-5-oxazolidinyl]methyl]acetamide] are 1 µg/mL (≈ 2.88 µM) and 0.25 µg/mL (≈ 0.72 µM).
In the case of `COC(=O)c1ccn(-c2ccc(N3C[C@H](CNC(C)=O)OC3=O)cc2F)c1` [Example 14, (S)-N-[[3-[3-Fluoro-4-(3-carbomethoxy-1H-pyrrol-1-yl)phenyl]-2-oxo-5-oxazolidinyl]methyl]acetamide], the MIC amounted to 2 µg/mL (≈ 5.33 µM) in the assay with S. aureus, UC 9213 [1] and 0.25 µg/mL (≈ 0.666 µM) in the assay on S. pneumoniae, UC 9912.
As for `CON=Cc1ccn(-c2ccc(N3C[C@H](CNC(C)=O)OC3=O)cc2F)c1` [Example 15, (S)-N-[[3-[3-Fluoro-4-(1H-pyrrol-1-yl-3-carboxaldehyde)phenyl]-2-oxo-5-oxazolidinyl]methyl]acetamide, methoxime], the ED50 in the assay with S. aureus, UC 9213 [2] came to 7.3 mg/kg. The MIC was found to be 1 µg/mL (≈ 2.67 µM) in the assay on S. aureus, UC 9213 [1] and 0.25 µg/mL (≈ 0.668 µM) in the assay with S. pneumoniae, UC 9912.
The corresponding values for `CC(=O)NC[C@H]1CN(c2ccc(-n3ccc(C=NO)c3)c(F)c2)C(=O)O1` [Example 16, (S)-N-[[3-[3-Fluoro-4-(3-(hydroxyiminomethyl)-1H-pyrrol-1-yl)phenyl]-2-oxo-5-oxazolidinyl]methyl]acetamide] are 5.5 mg/kg, 1 µg/mL (≈ 2.78 µM) and less than 0.25 µg/mL.
Take `CC(=O)NC[C@H]1CN(c2ccc(-n3cc(C(C)=O)nn3)c(F)c2)C(=O)O1` [Example 17, (S)-N-[[3-[3-Fluoro-4-(4-acetyl-1H-1,2,3-triazol-1-yl)phenyl]-2-oxo-5-oxazolidinyl]methyl]acetamide]: the MIC in the assay on S. aureus, UC 9213 [1] was 1 µg/mL (≈ 2.77 µM); in the assay on S. pneumoniae, UC 9912, 0.5 µg/mL (≈ 1.38 µM).
In the case of `CC(=O)NC[C@H]1CN(c2ccc(-n3cc(C(C)O)nn3)c(F)c2)C(=O)O1` (stereo partly drawn) [Example 18, (S)-N-[[3-[3-Fluoro-4-(4-(1-hydroxyethyl)-1H-1,2,3-triazol-1-yl)phenyl]-2-oxo-5-oxazolidinyl]methyl]acetamide], the MIC in the assay on S. aureus, UC 9213 [1] worked out at 4 µg/mL (≈ 11 µM); with S. pneumoniae, UC 9912, 0.5 µg/mL (≈ 1.38 µM).
The corresponding values for `CC(=O)NC[C@H]1CN(c2ccc(-n3cc(C(C)=NO)nn3)c(F)c2)C(=O)O1` [Example 19] are 4 µg/mL (≈ 10.6 µM) and 0.5 µg/mL (≈ 1.33 µM).
The corresponding values for `COC(=O)c1cn(-c2ccc(N3C[C@H](CNC(C)=O)OC3=O)cc2F)nn1` [Example 20, (S)-N-[[3-[3-Fluoro-4-(4-carbomethoxy-1H-1,2,3-triazol-1-yl)phenyl]-2-oxo-5-oxazolidinyl]methyl]acetamide] are 4 µg/mL (≈ 10.6 µM) and 1 µg/mL (≈ 2.65 µM).
The corresponding values for `CC(=O)NC[C@H]1CN(c2ccc(-n3cc(C=O)nn3)c(F)c2)C(=O)O1` [Example 21, (S)-N-[[3-[3-Fluoro-4-(1H-1,2,3-triazol-1-yl-4-carboxaldehyde)phenyl]-2-oxo-5-oxazolidinyl]methyl]acetamide] are 0.5 µg/mL (≈ 1.44 µM) and 0.25 µg/mL (≈ 0.72 µM).
Consider `CC(=O)NC[C@H]1CN(c2ccc(-n3cc(CO)cn3)c(F)c2)C(=O)O1` [Example 22, (S)-N-[[3-[3-Fluoro-4-(4-hydroxymethyl-1H-pyrazol-1-yl)phenyl]-2-oxo-5-oxazolidinyl]methyl]acetamide], for which the MIC in the assay with S. aureus, UC 9213 [1] worked out at 8 µg/mL (≈ 23 µM); in the assay with S. pneumoniae, UC 9912 it was 0.5 µg/mL (≈ 1.44 µM).
For `CCOC(=O)C=Cc1ccn(-c2ccc(N3C[C@H](CNC(C)=O)OC3=O)cc2F)c1` [Example 23, (S)-N-[[3-[3-Fluoro-4-[3-(2-carboethoxyvinyl)-1H-pyrrol-1-yl]phenyl]-2-oxo-5-oxazolidinyl]methyl]acetamide], the MIC was 4 µg/mL (≈ 9.63 µM) in the assay on S. aureus, UC 9213 [1] and 0.5 µg/mL (≈ 1.2 µM) in the assay with S. pneumoniae, UC 9912.
The corresponding values for `CCOC(=O)CCc1ccn(-c2ccc(N3C[C@H](CNC(C)=O)OC3=O)cc2F)c1` [Example 24, (S)-N-[[3-[3-Fluoro-4-[3-(2-carboethoxyethyl)-1H-pyrrol-1-yl]phenyl]-2-oxo-5-oxazolidinyl]methyl]acetamide] are 4 µg/mL (≈ 9.58 µM) and 0.5 µg/mL (≈ 1.2 µM).
The corresponding values for `CC(=O)NC[C@H]1CN(c2ccc(-n3ccc(CCCO)c3)c(F)c2)C(=O)O1` [Example 25, (S)-N-[[3-[3-Fluoro-4-[3-(3-hydroxypropyl)-1H-pyrrol-1-yl]phenyl]-2-oxo-5-oxazolidinyl]methyl]acetamide] are 4 µg/mL (≈ 10.7 µM) and 0.5 µg/mL (≈ 1.33 µM).
As to `CC(=O)NC[C@H]1CN(c2ccc(-n3ccc(CCCNS(C)(=O)=O)c3)c(F)c2)C(=O)O1` [Example 26, (S)-N-[[3-[3-Fluoro-4-[3-(3-methanesulfonylaminopropyl)-1H-pyrrol-1-yl]phenyl]-2-oxo-5-oxazolidinyl]methyl]acetamide], the MIC with S. aureus, UC 9213 [1] was determined as 8 µg/mL (≈ 17.7 µM); with S. pneumoniae, UC 9912, 0.5 µg/mL (≈ 1.1 µM).
